Where two headings read alike, the source gives them in different places.
Method: In vitro permeation study through hairless mouse skin to investigate the skin permeability of clobetasol propionate, amcinonide, betamethasone dipropionate, loteprednol etabonate, dexamethasone, prednisolone acetate and its metabolite (prednisolone).
Steroid patches were prepared according to the following procedure. The steroid (clobetasol propionate, amcinonide, betamethasone dipropionate, loteprednol etabonate, dexamethasone, or prednisolone acetate) was weighed in a clear polypropylene cup. 2 mL of ethyl acetate was added, and dispersed by ultrasonic wave using an ultrasonicator. DURO-TAK® 87-4098 was carefully added in the clear polypropylene cup. The components were mixed using a spatula, and then the lid of the cup was closed to avoid evaporation. A coating bar was adjusted to about 370 μm to control the thickness. The product material was carefully dispensed onto release liner near the coating bar. The coating process was started by moving the coating bar with the hand. The coated sheet was transferred to the oven and heated at 80° C. for 10±1 minutes. The dried sheet was removed from the oven, and laminated with the polyethylene terephthalate film. The thickness of the patch was checked.
The abdominal skin of 6 hairless, 8 week old, female mice were used for in vitro skin permeation experiment. (Horizontal cell, effective volume: 5 mL, effective area: 0.64 cm^2). […] The experimental temperature was controlled at 37° C., and 400 μL it of receptor solution was sampled at 1, 2, 3, 4, 5, 6, 9, 12, 22, 28, 34 and 48 hours. Thereafter, the same amount of the 40% polyethylene glycol 400 solution was added to the receptor cell. The concentration of each steroid in the sampled receptor solution was analyzed with HPLC.

[1] = female, hairless, mouse, 5 % (steroid in patch)

SMILES	lag-time, times shorter than dexamethasone [1] [times]	lag-time, times shorter than prednisolone [1] [times]	steady-state penetration rate, times higher than that of dexamethasone [1] [times]	steady-state penetration rate, times higher than that of prednisolone [1] [times]	lag-time, times shorter than dexamethasone [times]	lag-time, times shorter than prednisolone [times]	steady-state penetration rate, times higher than that of dexamethasone [times]	steady-state penetration rate, times higher than that of prednisolone [times]
CC(=O)OCC(=O)[C@@]12OC3(CCCC3)O[C@@H]1C[C@H]1[C@@H]3CCC4=CC(=O)C=C[C@]4(C)[C@@]3(F)[C@@H](O)C[C@@]12C [amcinonide]	4	5	10	20	–	–	–	–
CCC(=O)OCC(=O)[C@@]1(OC(=O)CC)[C@@H](C)C[C@H]2[C@@H]3CCC4=CC(=O)C=C[C@]4(C)[C@@]3(F)[C@@H](O)C[C@@]21C [betamethasone, betamethasone dipropionate]	–	–	–	–	3	4	3	6
CCC(=O)O[C@]1(C(=O)CCl)[C@@H](C)C[C@H]2[C@@H]3CCC4=CC(=O)C=C[C@]4(C)[C@@]3(F)[C@@H](O)C[C@@]21C [clobetasol, clobetasol propionate]	6	7	8	14	–	–	–	–
CCOC(=O)O[C@]1(C(=O)OCCl)CC[C@H]2[C@@H]3CCC4=CC(=O)C=C[C@]4(C)[C@H]3[C@@H](O)C[C@@]21C [loteprednol, loteprednol etabonate]	4	5	7	12	–	–	–	–
